From ChEMBL document CHEMBL1201862, “PubChem BioAssay data set” (2004)
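1) Cells in 96-well plates. 2) Compound, 48 h, 5 concentrations. 3) Linear interpolation between surrounding doses. 4) Unreached endpoint = highest concentration. At the GI50, growth is halved.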 Activity calls are given as the source filed them. Rule as the data show it: active = GI50 up to about 1.1 µM and inactive = higher.

What was measured:
Assay in all cases: inhibition of tumour cell growth, NCI panel, 48 h
[1] = system: COLO 205
[2] = system: DU-145
[3] = system: HCT-116
[4] = system: HOP-92
[5] = system: K562
[6] = system: KM12
[7] = system: NCI-H226
[8] = system: NCI/ADR-RES
[9] = system: OVCAR-3
[10] = system: OVCAR-4
[11] = system: OVCAR-5
[12] = system: RPMI-8226
[13] = system: SK-MEL-2
[14] = system: SN12C
[15] = system: SW-620
[16] = system: UACC-257
[17] = system: CCRF-CEM
[18] = system: MCF7
[19] = system: SF-539
[20] = system: SR

SMILES | GI50 [1] | GI50 [2] | GI50 [3] | GI50 [4] | GI50 [5] | GI50 [6] | GI50 [7] | GI50 [8] | GI50 [9] | GI50 [10] | GI50 [11] | GI50 [12] | GI50 [13] | GI50 [14] | GI50 [15] | GI50 [16] | GI50 [17] | GI50 [18] | GI50 [19] | GI50 [20]
Cc1ccc(/N=N/c2c(O)ccc3ccccc23)c(C)c1 | > 100 µM (inactive) | > 100 µM (inactive) | > 100 µM (inactive) | > 100 µM (inactive) | > 100 µM (inactive) | > 100 µM (inactive) | > 100 µM (inactive) | > 100 µM (inactive) | > 100 µM (inactive) | > 100 µM (inactive) | > 100 µM (inactive) | > 100 µM (inactive) | > 100 µM (inactive) | > 100 µM (inactive) | > 100 µM (inactive) | > 100 µM (inactive) |  |  |  | 
CCCc1c(Cl)nc(Cl)nc1Cl | 0.252 µM (active) | 5.47 µM (inactive) | 0.546 µM (active) | 2.65 µM (inactive) | 0.0723 µM (active) | 3.61 µM (inactive) | 0.0222 µM (active) | 0.845 µM (active) | 1.01 µM (active) | 10.2 µM (inactive) | 1.54 µM (inactive) | 0.432 µM (active) | 0.352 µM (active) | 0.467 µM (active) | 0.16 µM (active) | 2.13 µM (inactive) | 0.0265 µM (active) | 1.73 µM (inactive) | 2.54 µM (inactive) | 
O=[N+]([O-])C(C(Cl)=C(Cl)Cl)=C(n1cncn1)n1cncn1 | 13.7 µM (inactive) | 16.5 µM (inactive) | 16.1 µM (inactive) |  |  | 50.4 µM (inactive) | > 100 µM (inactive) | 25.1 µM (inactive) | 18.2 µM (inactive) | 24.4 µM (inactive) | 15.6 µM (inactive) | 17.1 µM (inactive) | > 100 µM (inactive) | 12.4 µM (inactive) | 18.8 µM (inactive) | 31.3 µM (inactive) | 3.37 µM (inactive) | 25.6 µM (inactive) | 19 µM (inactive) | 31.2 µM (inactive)
CSc1cc(Cl)c(C)cc1S(=O)(=O)NC(=O)NNc1ccc(F)c(Cl)c1 | > 100 µM (inactive) | > 100 µM (inactive) | > 100 µM (inactive) |  | > 100 µM (inactive) | > 100 µM (inactive) | > 100 µM (inactive) | > 100 µM (inactive) | > 100 µM (inactive) | > 100 µM (inactive) | > 100 µM (inactive) |  | > 100 µM (inactive) | > 100 µM (inactive) | > 100 µM (inactive) |  | 54.3 µM (inactive) | > 100 µM (inactive) | > 100 µM (inactive) | 61 µM (inactive)
CC(Cn1c(=O)oc2ccccc21)N(C)C (stereo not given) | > 100 µM (inactive) | > 100 µM (inactive) | > 100 µM (inactive) |  | > 100 µM (inactive) | > 100 µM (inactive) | > 100 µM (inactive) | > 100 µM (inactive) | > 100 µM (inactive) |  | > 100 µM (inactive) | > 100 µM (inactive) | > 100 µM (inactive) | > 100 µM (inactive) | > 100 µM (inactive) | > 100 µM (inactive) | > 100 µM (inactive) | > 100 µM (inactive) | > 100 µM (inactive) | > 100 µM (inactive)
C[n+]1c2ccccc2n2c3ccccc3c(NCCc3ccccn3)c(C#N)c21 | 1.68 µM (inactive) | 2.72 µM (inactive) | 0.933 µM (active) | 5.97 µM (inactive) | 2.21 µM (inactive) | 2.47 µM (inactive) | 2.55 µM (inactive) | 13.8 µM (inactive) | 2.34 µM (inactive) | 0.804 µM (active) | 2 µM (inactive) | 1.64 µM (inactive) | 2.61 µM (inactive) | 1.23 µM (inactive) | 0.661 µM (active) | 3.5 µM (inactive) | 1.25 µM (inactive) | 0.249 µM (active) | 1.99 µM (inactive) | 
c1ccc2nn(C3CCCCO3)nc2c1 (stereo not given) | > 100 µM (inactive) | > 100 µM (inactive) | > 100 µM (inactive) |  | > 100 µM (inactive) | > 100 µM (inactive) | > 100 µM (inactive) | > 100 µM (inactive) | > 100 µM (inactive) | > 100 µM (inactive) | > 100 µM (inactive) |  | > 100 µM (inactive) | > 100 µM (inactive) |  | > 100 µM (inactive) | > 100 µM (inactive) | > 100 µM (inactive) | > 100 µM (inactive) | > 100 µM (inactive)
Cc1[nH]c2ccccc2c1C1=CC(=O)N(c2ccccc2)C1=O | 17.7 µM (inactive) | 4.74 µM (inactive) | 8.75 µM (inactive) | 7.74 µM (inactive) | 6.37 µM (inactive) |  | 19 µM (inactive) | 20.2 µM (inactive) | 9.53 µM (inactive) |  | 23.1 µM (inactive) | 11.3 µM (inactive) | 13.6 µM (inactive) | 13.8 µM (inactive) | 5.38 µM (inactive) | 13.1 µM (inactive) | 8.45 µM (inactive) | 5.28 µM (inactive) | 10.8 µM (inactive) | 
N#Cc1c2c(c(N3CCOCC3)n3c1nc1ccccc13)CCCC2 | 20.9 µM (inactive) | 19 µM (inactive) | 13.9 µM (inactive) | 17.1 µM (inactive) | 25.1 µM (inactive) | > 100 µM (inactive) | 14 µM (inactive) | 17.9 µM (inactive) | 18.8 µM (inactive) | 20 µM (inactive) | 21.1 µM (inactive) |  | 16.5 µM (inactive) | 19.9 µM (inactive) | 14.4 µM (inactive) | 29.2 µM (inactive) | 2.75 µM (inactive) | 26.2 µM (inactive) | 19.1 µM (inactive) | 
CCOC(=O)NNC(=O)C1CSC(c2ccccc2)N1C(C)=O (stereo not given) | > 100 µM (inactive) | > 100 µM (inactive) | > 100 µM (inactive) | 82.2 µM (inactive) | > 100 µM (inactive) | > 100 µM (inactive) | > 100 µM (inactive) | > 100 µM (inactive) | > 100 µM (inactive) | > 100 µM (inactive) | > 100 µM (inactive) | > 100 µM (inactive) | > 100 µM (inactive) | > 100 µM (inactive) | > 100 µM (inactive) | > 100 µM (inactive) | > 100 µM (inactive) | > 100 µM (inactive) | > 100 µM (inactive) | 
Cc1nc2c(=O)[nH]ncc2[nH]1 | > 100 µM (inactive) | > 100 µM (inactive) | > 100 µM (inactive) |  | > 100 µM (inactive) | 84.1 µM (inactive) | > 100 µM (inactive) | > 100 µM (inactive) | > 100 µM (inactive) |  | > 100 µM (inactive) | > 100 µM (inactive) | > 100 µM (inactive) | > 100 µM (inactive) | > 100 µM (inactive) | > 100 µM (inactive) | > 100 µM (inactive) | > 100 µM (inactive) | > 100 µM (inactive) | > 100 µM (inactive)
COc1c(OC)c(OC)c(C(=O)/C=C/c2ccccc2)c(OC)c1OC | 14.2 µM (inactive) | 3.54 µM (inactive) | 6.11 µM (inactive) | 3.13 µM (inactive) | 4.17 µM (inactive) | 4.1 µM (inactive) | 8.05 µM (inactive) | 11.5 µM (inactive) | 9.29 µM (inactive) | 5.97 µM (inactive) | 16.5 µM (inactive) | 3.6 µM (inactive) | 12.6 µM (inactive) | 10.6 µM (inactive) | 6.95 µM (inactive) | 14.3 µM (inactive) | 1.96 µM (inactive) | 5.82 µM (inactive) | 9.02 µM (inactive) | 
CN(C)c1ccc(/C=N/NC(=O)c2cnc3ccccc3c2)cc1 | > 100 µM (inactive) | 59.3 µM (inactive) | > 100 µM (inactive) | 49.4 µM (inactive) | > 100 µM (inactive) | 38.5 µM (inactive) | > 100 µM (inactive) | > 100 µM (inactive) | > 100 µM (inactive) | > 100 µM (inactive) | > 100 µM (inactive) | > 100 µM (inactive) | > 100 µM (inactive) | > 100 µM (inactive) | > 100 µM (inactive) | > 100 µM (inactive) |  | > 100 µM (inactive) | 52 µM (inactive) | 
NCCCCNCCCN1CCOC1=O | > 100 µM (inactive) | > 100 µM (inactive) | > 100 µM (inactive) |  | > 100 µM (inactive) | > 100 µM (inactive) | > 100 µM (inactive) | > 100 µM (inactive) | > 100 µM (inactive) |  | > 100 µM (inactive) | > 100 µM (inactive) | > 100 µM (inactive) | > 100 µM (inactive) | > 100 µM (inactive) | > 100 µM (inactive) | > 100 µM (inactive) | > 100 µM (inactive) | > 100 µM (inactive) | > 100 µM (inactive)
C[C@]12CC[C@@H]3c4ccc(O)cc4CC[C@H]3[C@@H]1CC[C@@H]2OP(=O)(O)O | > 100 µM (inactive) | > 100 µM (inactive) | > 100 µM (inactive) | > 100 µM (inactive) | > 100 µM (inactive) | > 100 µM (inactive) | > 100 µM (inactive) | > 100 µM (inactive) | > 100 µM (inactive) | > 100 µM (inactive) | > 100 µM (inactive) | > 100 µM (inactive) | > 100 µM (inactive) | > 100 µM (inactive) | > 100 µM (inactive) | > 100 µM (inactive) | > 100 µM (inactive) | > 100 µM (inactive) | > 100 µM (inactive) | 
